We go through six molecules from patent publication US10072252B2 (priority 2013, dated 2018).

The target of series [1] is T1, Sulfolobus solfataricus SsoPox variant W263I, SEQ ID NO: 15 (Saccharolobus solfataricus, UniProt Q97VT7, W263I). It counts as biochemical. Details: made in house; host or cells: E. coli BL21(DE3)-pGro7/GroEL.
Series [2] deals with T2, Sulfolobus solfataricus SsoPox variant W263M, SEQ ID NO: 9 (Saccharolobus solfataricus, UniProt Q97VT7, W263M).
T2 construct: made in house; host or cells: E. coli BL21(DE3)-pGro7/GroEL
It counts as biochemical.

Series [3] has as its target T3, Sulfolobus solfataricus SsoPox variant W263F (of SEQ ID NO: 3) (Saccharolobus solfataricus, UniProt Q97VT7, W263F). It counts as biochemical. Details: made in house; host or cells: E. coli BL21(DE3)-pGro7/GroEL.
In series [4] the target is T4, Sulfolobus solfataricus SsoPox variant W263T, SEQ ID NO: 19 (Saccharolobus solfataricus, UniProt Q97VT7, W263T). It counts as biochemical. Set-up: made in house; host or cells: E. coli BL21(DE3)-pGro7/GroEL.
The target of series [5] is T5, Sulfolobus solfataricus SsoPox variant αsA1 (C258L/I261F/W263A), SEQ ID NO: 21 (Saccharolobus solfataricus, UniProt Q97VT7, C258L/I261F/W263A).
T5 construct: made in house; host or cells: E. coli BL21(DE3)-pGro7/GroEL
T5 sequence (Q97VT7 1-314 C258L/I261F/W263A): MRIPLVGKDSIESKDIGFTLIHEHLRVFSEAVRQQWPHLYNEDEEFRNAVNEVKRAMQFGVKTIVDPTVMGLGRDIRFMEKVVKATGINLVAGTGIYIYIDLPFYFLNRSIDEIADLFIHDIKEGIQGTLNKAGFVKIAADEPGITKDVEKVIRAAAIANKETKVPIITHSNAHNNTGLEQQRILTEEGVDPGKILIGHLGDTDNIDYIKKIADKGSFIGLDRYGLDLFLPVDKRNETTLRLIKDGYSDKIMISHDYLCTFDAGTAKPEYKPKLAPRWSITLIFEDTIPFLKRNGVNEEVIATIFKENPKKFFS
It counts as biochemical. The conditions noted are these: pH 8.

For series [6], the target named is T6, Sulfolobus solfataricus SsoPox variant W263A, SEQ ID NO: 13 (Saccharolobus solfataricus, UniProt Q97VT7, W263A). It counts as biochemical. Details: made in house; host or cells: E. coli BL21(DE3)-pGro7/GroEL.
The target in series [7] is T7, Sulfolobus solfataricus SsoPox, wild type (wt), SEQ ID NO: 3 (Saccharolobus solfataricus, UniProt Q97VT7). Details: made in house; host or cells: E. coli BL21(DE3)-pGro7/GroEL. The note with it: cited from earlier work.
The target of series [8] is T8, Sulfolobus solfataricus SsoPox variant W263V, SEQ ID NO: 17 (Saccharolobus solfataricus, UniProt Q97VT7, W263V). It counts as biochemical. Details: made in house; host or cells: E. coli BL21(DE3)-pGro7/GroEL.
The target in series [9] is T9, Sulfolobus solfataricus SsoPox variant W263L, SEQ ID NO: 11 (Saccharolobus solfataricus, UniProt Q97VT7, W263L).
T9 construct: made in house; host or cells: E. coli BL21(DE3)-pGro7/GroEL
It counts as biochemical.

Series [10] concerns the target T7, Sulfolobus solfataricus SsoPox, wild type (wt), SEQ ID NO: 3. It counts as biochemical. Details: made in house; host or cells: E. coli BL21(DE3)-pGro7/GroEL.
Series [11] has as its target T4, Sulfolobus solfataricus SsoPox variant W263T, SEQ ID NO: 19.
In series [12] the target is T9, Sulfolobus solfataricus SsoPox variant W263L, SEQ ID NO: 11. It counts as biochemical. This is another data set of the same source.
Series [13] addresses T3, Sulfolobus solfataricus SsoPox variant W263F (of SEQ ID NO: 3).
Series [14] has as its target T1, Sulfolobus solfataricus SsoPox variant W263I, SEQ ID NO: 15.
Series [15] deals with T6, Sulfolobus solfataricus SsoPox variant W263A, SEQ ID NO: 13.
Series [16] concerns the target T2, Sulfolobus solfataricus SsoPox variant W263M, SEQ ID NO: 9. It counts as biochemical. The source holds these as a separate data set.
The target in series [17] is T8, Sulfolobus solfataricus SsoPox variant W263V, SEQ ID NO: 17.
In series [18] the target is T7, Sulfolobus solfataricus SsoPox, wild type (wt), SEQ ID NO: 3.
Another series concerns 3-oxo-C12 AHL. It counts as cell-based, Pseudomonas aeruginosa.
Series [19] is classed as physicochemical. The note with it: pH 8.

Positions count from the first letter of the chain named. In names and notes the source's numbering stands. Several values for one entry are separate records, joined by “and”; a condition that tells them apart may be missing. Identical values can stand only once. Like-named read-outs stand apart in the source and are kept apart here.

In general, kcat/KM refers to the turnover number divided by the Michaelis constant. Usually Km stands for the concentration of substrate that gives half-maximal velocity. Broadly, the kcat is the maximal rate divided by the concentration of active sites. For `CCOP(=O)(OCC)Oc1ccc([N+](=O)[O-])cc1` [Paraoxon, paraoxon], the Enhancement/wt in series [1] is given as 2.3; in series [2], 14.1; in series [3], 23.3; in series [4], 2.0; in series [6], 6.8; in series [8], 1.7. Besides, the Enhancement/wt amounted to 4.6 in series [9] and 1 in [10]. Moreover, the specificity constant (kcat/KM) in series [1] (pH 8) is given as 1.21(±0.59) × 10^3 M^−1s^−1; in series [2] (pH 8) it was 7.33(±1.9) × 10^3 M^−1s^−1; in series [3] (pH 8) it was 1.21(±0.33)×10^4 M^−1s^−1; in series [4] (pH 8), 1.06(±0.03) × 10^3 M^−1s^−1; in [6] (pH 8) it was 3.55(±1.30)×10^3 M^−1s^−1; in [7], 6.41(±1.51)×10^3 M^−1s^−1. Further, the kcat/KM is listed as 5.19(±1.31) × 10^2 M^−1s^−1 in series [7] (pH 8), 8.83(±0.3) × 10^2 M^−1s^−1 in series [8] (pH 8) and 2.37(±0.33) × 10^3 M^−1s^−1 in series [9] (pH 8). Also, the Michaelis-Menten constant (Km) in series [2] (pH 8) is 931 ± 163 µM; in series [3] (pH 8), 700 ± 146 µM; in [6] (pH 8), 1490 ± 351 µM; in series [7] (pH 8), 24300 ± 3720 µM. For the same molecule, the kcat was 6.82 ± 0.57 s⁻¹ in series [2] (pH 8); 8.47 ± 0.53 s⁻¹ in series [3] (pH 8); 5.29 ± 0.69 s⁻¹ in [6] (pH 8); 12.59 ± 1.26 s⁻¹ in series [7] (pH 8); 3.17 ± 0.18 s⁻¹ and 3.13 ± 0.25 s⁻¹ in series [9]. In addition, the Catalytic activity was 3.37(±0.94) · 10^4 M^−1s^−1 in series [5] and 5.19(±1.31) · 10^2 M^−1s^−1 in series [7] (pH 8). Besides, the results for the “catalytic efficiency improvement induced by SDS” value in series [9] and in [10] were 19.8 times and 12.4 times, respectively.

With `CCCCCCCCCC(=O)CC(=O)N[C@H]1CCOC1=O` [3-oxo-C12 AHL], the Enhancement/wt is 25.6 and 21.2 ± 7.2 in series [11]; 0 in [12]; 1.5 and 1.3 ± 0.5 in series [13]; 54.7 and 45.5 ± 18.8 in [14]; 0.42 in series [15]; 0 in series [16]. Moreover, the Enhancement/wt in series [17] was 65.8 and 54.5 ± 20.4; in series [18] it was 1. Further, the kcat is 6.44 ± 0.22 s⁻¹ in series [11] (pH 8.3), 0.41 ± 0.02 s⁻¹ in [13] (pH 8.3), 1.80 ± 0.05 s⁻¹ in [14] (pH 8.3) and 3.00 ± 0.07 s⁻¹ in [17] (pH 8.3). Also, the kcat/KM in series [11] (pH 8.3) is 4.70(±0.67) × 10^4 M^−1s^−1; in series [13] (pH 8.3), 2.81(±0.65) × 10^3 M^−1s^−1; in series [17] (pH 8.3) it was 1.21(±0.26) × 10^5 M^−1s^−1; in [18] it was 2.96(±0.99)×10^3 M^−1s^−1. Besides, the ability to hydrolyse entry in series [12], in series [15] and in series [16] was “lost the ability to hydrolyse” each time.

With `COP(=S)(OC)Oc1ccc([N+](=O)[O-])cc1` [Methyl-parathion, methyl-parathion], the Catalytic activity in series [5] was 3.68(±0.5) · 10^1 M^−1s^−1. For the same molecule, the Catalytic activity in series [7] (pH 8) is 9.09 ± 0.9 M⁻¹ s⁻¹. Further, in series [9], the Km is 168 ± 31 µM, the kcat is recorded as 1.22(±0.13) × 10^−1 s^−1 and the kcat/KM amounted to 728 ± 156 M⁻¹ s⁻¹.

B1: SsoPox W263A: SEQ ID NO: 3 with substitution of tryptophan W in position 263 by alanine A (protein, listed as Sulfolobus solfataricus)
chain: T5 sequence (Q97VT7 1-314 C258L/I261F/W263A) with L258C, F261I
On to B1, for which the “relative lactonase activity in screening (3-oxo-C12 AHL hydrolysis)” value (“relative lactonase activity in screening” for short) in the series on 3-oxo-C12 AHL is “selected for a potential lactonase activity improvement”.

B2: SsoPox W263T: SEQ ID NO: 3 with substitution of tryptophan W in position 263 by threonine T (protein, listed as Sulfolobus solfataricus)
chain: T5 sequence (Q97VT7 1-314 C258L/I261F/W263A) with L258C, F261I, A263T
As for B2, in [19], the melting temperature worked out at 89.2±0.4 °C. Besides, the “relative lactonase activity in screening” value in the series on 3-oxo-C12 AHL was “selected for a potential lactonase activity improvement”.

B3: SsoPox W263V: SEQ ID NO: 3 with substitution of tryptophan W in position 263 by valine V (protein, listed as Sulfolobus solfataricus)
chain: T5 sequence (Q97VT7 1-314 C258L/I261F/W263A) with L258C, F261I, A263V
In turn, B3 gave a melting temperature in series [19] of 84.1±1.6 °C. Further, the “relative lactonase activity in screening” value in the series on 3-oxo-C12 AHL was “selected for a potential lactonase activity improvement”.
